Laboratory results taken from patent publication US20120244567A1, “HUMAN EMBRYONIC STEM CELLS FOR HIGH THROUGHOUT DRUG SCREENING” (BUCK INSTITUTE FOR RESEARCH ON AGING, priority 2009, published 2012).
Structures can show the parent of a compound that is named as a salt.

Key:
[1] = test system: hESC-derived NSCs; assay: ATP assay in hESC-derived NSCs (96-well, primary screen and retest); assay type: cell-based, human; parameters: cytotoxicity: dose or concentration left out as unconfirmed; toxicity to NSCs (reduced ATP concentrations) / ATP levels in NSC population: unit of the concentration uncertain
Procedure: EBs were then cultured for additional 2-3 days in suspension in neural induction media containing DMEM/F12 with Glutamax, 1×NEAA, 1×N2 and FGF2 (20 ng/ml) prior to attachment on cell culture plates. […] To obtain a pure population of NSCs, rosettes were manually isolated and dissociated into single cells using Accutase. The NSCs population was expanded in Neurobasal media containing 1×NEAA, 1×L-Glutamine (2 mM), 1×B27, LIF and FGF2 20 ng/ml.
Media was changed every day for hESCs and every other day for NSCs and additionally changed prior to drug treatment. The cells were treated with compounds from the NINDS library diluted in […] of either ESC or NSC media to a final concentration of 2.5 mM in 0.01% DMSO. […] For all sampling, ESC and NSC plates were processed in parallel for one drug or control condition at a time.
(§1) For ATP measurements, the media was removed, cells were washed 1× in milliQ water and reconstituted in […] ATP-Lite Mammalian Lysis Buffer and shaken for 5 minutes. Two […] aliquots of lysed cells were replated onto separate 96 well plates for later protein measurements.
(§2) To identify compounds that are toxic to hESCs, hESC-derived NSCs, or both, we screened 720 FDA-approved drugs of the NINDS collection by testing the toxicity of each drug at a dose of 2.5 mM. For endpoint measurement of cell death caused by drug toxicity, we used a widely accepted ATP assay that measures changes in ATP level as an indicator of cellular response to cell death. In this assay, total ATP content per well was measured and normalized to the total cellular protein.
Three concentrations of each compound (1 mM, 2.5 mM and 10 mM) were used in the retest.

[2] = test system: hESCs; assay: ATP assay in hESCs (96-well); assay type: cell-based, human; parameters: dose or concentration left out as unconfirmed; conditions: 48 h (FIG. 5)
Procedure: Media was changed every day for hESCs and every other day for NSCs and additionally changed prior to drug treatment. […] […] For all sampling, ESC and NSC plates were processed in parallel for one drug or control condition at a time.
as §1, §2

[3] = test system: 2102Ep cells; assay: Effect on immortal cell line 2102Ep; assay type: cell-based, human; conditions: 48 hours after treatment, data not shown
From the text: Media was changed every day and cells were passaged every 3-4 days at a ratio of between 1:4 to 1:6.

[4] = test system: human fetal-derived astrocytes; assay: Effect on human astrocytes (cell death); assay type: cell-based; conditions: up to 48 hours after treatment
From the text: Media was changed every other day and cells were passaged once a week at a 1:4 ratio.

## CCCCc1oc2ccccc2c1C(=O)c1cc(I)c(OCCN(CC)CC)c(I)c1 [Amiodarone Hydrochloride]
[1]; 10 (unit uncertain), 48 h (FIG. 5)
  ATP levels in NSC population: less than 15 % of the control mean
[1]; Homo sapiens, NINDS primary screen, 48 hours, read-out: NSC ATP values below the control mean
  cytotoxicity: ≥ 15%
[1]; retest, FIG. 2 panel B
  effect on NSC survival among dose responsive compounds: most dramatic effect on NSC survival
[2]
  effect seen in hESC (ATP levels): intermediate between NSCs and dopaminergic neurons
[3]
  effect on 2102Ep cells: no effect
[4]
  astrocyte cell death: did not cause astrocyte cell death
